From US12492181B2, “Gem-disubstituted piperidine melanocortin subtype-2 receptor (MC2R) antagonists and uses thereof” (Crinetics Pharmaceuticals, Inc., priority 2019, dated 2025)
pKi: −log10 of the molar value.

biological target: T1, hMC2 receptor (crude hMC2R membranes from CRE-bla-CHO-K1 cells stably expressing hMC2 receptor and hMRAP accessory protein) (Homo sapiens, UniProt Q01718); assay: hMC2 membrane binding assay ([125I]ACTH (1-39) Tyr23, SPA); details: displacement of 0.2 nM [125I]ACTH (1-39) Tyr23 from hMC2R membranes, 1.5 hours at room temperature; read-out: MC2R binding potency
T1 construct: crude membrane fractions
T1 sequence (Q01718 whole entry): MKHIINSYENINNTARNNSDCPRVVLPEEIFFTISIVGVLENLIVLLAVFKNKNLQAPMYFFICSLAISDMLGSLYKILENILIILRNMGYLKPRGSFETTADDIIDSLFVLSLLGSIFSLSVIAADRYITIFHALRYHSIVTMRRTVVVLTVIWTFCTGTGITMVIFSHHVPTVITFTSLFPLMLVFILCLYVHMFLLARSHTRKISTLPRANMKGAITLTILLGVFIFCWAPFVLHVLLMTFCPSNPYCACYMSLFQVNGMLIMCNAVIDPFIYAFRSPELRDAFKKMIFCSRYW
T1 sequence (Q8TCY5 whole entry partner): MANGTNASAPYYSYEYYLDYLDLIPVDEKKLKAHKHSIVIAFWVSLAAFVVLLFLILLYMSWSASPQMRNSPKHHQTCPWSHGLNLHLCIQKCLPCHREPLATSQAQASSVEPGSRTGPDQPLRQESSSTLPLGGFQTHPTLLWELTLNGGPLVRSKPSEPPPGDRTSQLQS
Outline: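 Ki values come from non-linear regression of SPA scintillation counts, with compounds displacing [125I]ACTH(1-39) Tyr23. Membranes come from CRE-bla-CHO-K1 cells stably expressing hMC2 receptor together with hMRAP. They are preincubated with WGA-coated PVT SPA beads in 50 mM HEPES pH 7.4 with 0.20% BSA, Mg2+, Ca2+ and protease inhibitors.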

`CNCCNC(=O)C1(c2ccc(-c3ccccc3OC)nc2)CCN(c2ccc(C(F)(F)F)cc2F)CC1` [Compound 1-256, 1-[2-fluoro-4-(trifluoromethyl)phenyl]-4-[6-(2-methoxyphenyl)pyridin-3-yl]-N-[2-(methylamino)ethyl]piperidine-4-carboxamide] and `CCCOc1ccccc1-c1ccc(C2(C(=O)N[C@@H]3CCN(C)C3)CCN(c3ccc(C(F)(F)F)cc3C#N)CC2)cn1` [Compound 1-63, 1-[2-cyano-4-(trifluoromethyl)phenyl]-N-[(3R)-1-methylpyrrolidin-3-yl]-4-[6-(2-propoxyphenyl)pyridin-3-yl]piperidine-4-carboxamide] cannot be ordered by pKi: over 8.00 for the first, over 8.00 for the second.

First: Cc1cccnc1-c1ccc(C2(C(=O)N[C@@H]3CCN(C)C3)CCN(c3ccc(C(F)(F)F)cc3C#N)CC2)cn1 [Compound 1-177, 1-[2-cyano-4-(trifluoromethyl)phenyl]-4-{3′-methyl-[2,2′-bipyridin]-5-yl}-N-[(3R)-1-methylpyrrolidin-3-yl]piperidine-4-carboxamide]
Second: CN1CC[C@@H](NC(=O)C2(c3ccc(-c4cccc(F)c4F)nc3)CCN(c3ccc(C(F)(F)F)cc3C#N)CC2)C1 [Compound 1-61, 1-[2-cyano-4-(trifluoromethyl)phenyl]-4-[6-(2,3-difluorophenyl)pyridin-3-yl]-N-[(3R)-1-methylpyrrolidin-3-yl]piperidine-4-carboxamide]
The pKi of the first is lower: 6.00 to 7.00 for the first, over 8.00 for the second.

`CCOc1ncccc1-c1ccc(C2(NC(=O)O[C@H]3CCN(C)C3)CCN(c3ccc(C(F)(F)F)cc3C#N)CC2)cc1` [Compound 2-13, (3S)-1-methylpyrrolidin-3-yl N-{1-[2-cyano-4-(trifluoromethyl)phenyl]-4-[4-(2-ethoxypyridin-3-yl)phenyl]piperidin-4-yl}carbamate] and `CCOc1ncccc1-c1ccc(C2(OCCN(C)C)CCN(c3ccc(C(F)(F)F)cc3C#N)CC2)cc1` [Compound 2-1, 2-{4-[2-(dimethylamino)ethoxy]-4-[4-(2-ethoxypyridin-3-yl)phenyl]piperidin-1-yl}-5-(trifluoromethyl)benzonitrile] fall in the same range of pKi: 7.00 to 8.00 for the first, 7.00 to 8.00 for the second.

`CN1CC[C@H](NC(=O)C2(c3ccc(-c4cccn4C)nn3)CCN(c3ccc(C(F)(F)F)cc3C#N)CC2)C1` [Compound 1-168, 1-[2-cyano-4-(trifluoromethyl)phenyl]-4-[6-(1-methyl-1H-pyrrol-2-yl)pyridazin-3-yl]-N-[(3S)-1-methylpyrrolidin-3-yl]piperidine-4-carboxamide] and `CN1CCC[C@@H]1CNC(=O)C1(c2ccc(-c3cccn3C)nc2)CCN(c2ccc(C(F)(F)F)cc2C#N)CC1` [Compound 1-232, 1-[2-cyano-4-(trifluoromethyl)phenyl]-4-[6-(1-methyl-1H-pyrrol-2-yl)pyridin-3-yl]-N-{[(2R)-1-methylpyrrolidin-2-yl]methyl}piperidine-4-carboxamide] cannot be ordered by pKi: over 8.00 for the first, over 8.00 for the second.

First: CN1CC[C@@H](NC(=O)C2(c3ccc(-c4cccc5ccoc45)nc3)CCN(c3ccc(C(F)(F)F)cc3C#N)CC2)C1 [Compound 1-54, 4-[6-(1-benzofuran-7-yl)pyridin-3-yl]-1-[2-cyano-4-(trifluoromethyl)phenyl]-N-[(3R)-1-methylpyrrolidin-3-yl]piperidine-4-carboxamide]
Second: CCOc1ccccc1-c1ccc(C2(C(=O)N[C@H]3CCN(C)C3)CCN(c3ccc(Cl)cc3C#N)CC2)nn1 [Compound 1-134, 1-(4-chloro-2-cyanophenyl)-4-[6-(2-ethoxyphenyl)pyridazin-3-yl]-N-[(3S)-1-methylpyrrolidin-3-yl]piperidine-4-carboxamide]
The pKi of the first is lower: 7.00 to 8.00 for the first, over 8.00 for the second. The second binds more tightly here.

With `CN(C)CCNC(=O)C1(c2ccc(-c3cccn3C)nc2)CCN(c2ccc(C(F)(F)F)cc2Cl)CC1` [Compound 1-282, 1-[2-chloro-4-(trifluoromethyl)phenyl]-N-[2-(dimethylamino)ethyl]-4-[6-(1-methyl-1H-pyrrol-2-yl)pyridin-3-yl]piperidine-4-carboxamide] the pKi was over 8.00.
